Like-named read-outs stand apart in the source and are kept apart here.
How the values were obtained:
[1] = cited from earlier work
[2] = test system: Herpes Simplex Virus (HSV 1); assay: HSV 1 plaque reduction assay in Vero cell monolayers; format: cell-based; details: read-out: 50% inhibitory concentration (IC50)
Method: Herpes Simplex Virus (HSV 1) was assayed in monolayers of Vero cells in multiwell trays. Activity of compounds was determined in the plaque reduction assay, in which a cell monolayer was infected with a suspension of HSV 1, and then overlaid with nutrient agarose in the form of a gel to ensure that there was no spread of virus throughout the culture. A range of concentrations of compound of known molarity was incorporated in the nutrient agarose overlay. Plaque numbers at each concentration are expressed as percentages of the control and a dose-response curve was drawn. From this curve the 50% inhibitory concentration (IC50) was estimated.

[3] = background statement; cited from earlier work
herpes viruses = details: cited from earlier work
[4] = Oral bioavailability in rats: urinary recovery as acyclovir after oral administration (gavage); format: in vivo, Long Evans Rates (rats)
Method: Long Evans Rates are administered the compound to be tested by gavage at a dose equivalent to 25 mg/kg acyclovir. The urine is collected for 24 and 48 hours post-dose, ultrafiltered, and analysed by reverse-phase high-pressure liquid chromatography. The oral bioavailability of the compound is expressed as the percent of the dose excreted in the urine as acyclovir.

[5] = Plasma levels of acyclovir after oral administration in animals; format: in vivo

| SMILES | solubility in water [1] | IC50 ([2]; Vero) [nM] | absorption from the gastrointestinal tract after oral administration [3] | antiviral activity, particularly against herpes viruses (herpes viruses) | bioavailability compared with acyclovir or the esters disclosed in UK 1523865 and 1561380 ([4]; oral) | Urinary Recovery (% of dose) as acyclovir ([4]; rats, gavage, dose equivalent to 25 mg/kg acyclovir, urine 24 and 48 hours post-dose) | IC50 ([2]; HSV 1, Vero cells, plaque reduction) [nM] | levels of acyclovir in the plasma [5] |
| --- | --- | --- | --- | --- | --- | --- | --- | --- |
| Nc1nc2c(ncn2COCCO)c(=O)[nH]1 [Acyclovir, 9-(2-Hydroxyethoxymethyl)guanine] | poorly soluble | ~100 | only poorly absorbed | potent antiviral activity | – | – | – | – |
| CCCCC(=O)OCCOCn1cnc2c(=O)[nH]c(N)nc21 [Example A, 9-(2-valeryloxyethoxymethyl)guanine] | – | – | – | – | improved bioavailability | 34 % of dose | 200 | measurable levels of acyclovir in the plasma |

Source: US5079252A, “Therapeutic compounds” (priority 1988, dated 1992)
